The test system of one data set is HepG2. Nature of the data set: Cellular internalization of gemcitabine-bound chemically optimized aptamers. To be noted: analysis in HepG2 and A431 cells, FIGS. 20 to 22. It is filed as cell-based. On the procedure:
[The source words this procedure for another cell line and reports this cell line under the same test.] 5 aptamer libraries prepared by truncating the 12-10 aptamer at various lengths [12-12 (35-mer), 12-11 (29-mer), 12-13 (24-mer), 12-14 (23-mer), and 12-15 (18-mer)] were subjected to cellular internalization analysis. In detail, a 6-well plate was prepared, and a round cover glass was placed in the 6-well plate. Huh-7 cells were cultured in the 6-well plate according to the method of Example 1-3. 5 μM of the aptamer stock was mixed with 5×SB18 buffer to prepare the aptamer at a concentration of 4 μM, and heated at 95° C. for 5 min, and then cooled at room temperature for 15 min or more. The next day, the medium was removed from the cultured cells, and a serum-free medium was added thereto, and cultured under conditions of 37° C. and 5% CO2 for 1 hr. The serum-free medium was removed, and then the cells were washed with 2 mL of 1×PBS. KRPH buffer was added, and cultured under conditions of 37° C. and 5% CO2 for 1 hr. 4 μM aptamer was diluted to 25 nM, and then cultured under conditions of 37° C. and 5% CO2 for 1 hr or 4 hr. Washing was repeated three times with 2 mL of 1×PBS. Washing was performed in a shaker at room temperature for 10 min while blocking the light. Thereafter, the cells were fixed by treatment with 4% paraformaldehyde at 4° C. for 10 min. Washing was repeated three times with 2 mL of 1×PBS. […]

The test system of data set [1] is GPC3-expressing hepatoma cells. Kind of data set: Cell-killing effect (CCK-8) of gemcitabine-bound combi aptamers. It is filed as cell-based. To be noted: FIG. 23 and FIG. 24. On the procedure:
In detail, Huh-7 cells (ATCC, Rockville, MD, USA) were seeded in a 96-well plate at a density of 1×10^4/mL, and cultured using a DMEM (Gibco, Grand Island, NY, USA) medium containing 10% FBS (Gibco, Grand Island, NY, USA) and 1% antibiotics (penicillin/streptomycin) under conditions of 5% CO2 and 37° C. Next day, the aptamer stock (100 μM) was mixed with 5×SB18 buffer to prepare the stock at a concentration of 80 μM, and heated at 95° C. for 5 min, and then cooled at room temperature for 15 min or more. The medium was removed from the cultured cells, and 100 μL of a serum-free medium was added thereto, and cultured under conditions of 37° C. and 5% CO2 for 1 hr. The serum-free medium was removed, and then the cells were washed with 100 μL of 1×PBS. 100 μL of KRPH buffer was added, and cultured under conditions of 37° C. and 5% CO2 for 1 hr. The aptamer was diluted with KRPH buffer to 2-fold of the desired concentration, and added to a 96-well plate at 1× concentration, and cultured under conditions of 37° C. and 5% CO2 for 4 hr. After treatment with the aptamer, the KRPH buffer was removed, and then 100 μL of culture medium was added and cultured under conditions of 37° C. and 5% CO2 for […]. 6 days later, 10 μL of a kit solution of CCK-8 (Cell Counting Kit-8) was added to each well, and then cultured under conditions of 37° C. and 5% CO2 for 3 hr. Cell death levels were examined at […] using a microplate reader.

Data set [2] deals with hepatoma cells (Hep3B, HepG2). Nature of the data set: Cell cycle analysis (propidium iodide, FACS). It is filed as cell-based. The conditions noted are these: 4 hr treatment, FIGS. 25 and 26. On the procedure:
(§1) To analyze the effects of combi 4 and combi 5 bound with three or five gemcitabines on the cell cycle of hepatoma cells, cell cycle analysis was performed. In detail, Hep3B, HepG2, and A431 cells were seeded in a 6-well plate at a density of 1×10^6/ml, and cultured using a DMEM medium containing 10% FBS and 1% antibiotics (penicillin/streptomycin) under conditions of 5% CO2 and 37° C., respectively. Next day, 100 μM of the modified aptamer stock was mixed with 5×SB18 buffer to prepare the aptamer at a concentration of 80 μM, and heated at 95° C. for 5 min, and then cooled at room temperature for 15 min or more. The medium was removed from the cultured cells, and replaced by a serum-free medium, and cultured under conditions of 37° C. and 5% CO2 for 1 hr. The serum-free medium was removed, and then the cells were washed with 2 ml of 1×PBS. 2 ml of KRPH buffer was added, and cultured under conditions of 37° C. and 5% CO2 for 1 hr. The aptamer was added, and cultured under conditions of 37° C. and 5% CO2 for 4 hr. The KRPH buffer was removed, and 2 ml of 1×PBS was added thereto to perform washing, and then PBS was removed. 2 ml of 1×PBS was added, and cells were scraped using a scraper, and collected in FACs tubes, followed by centrifugation at 4° C. and 2000 rpm for 4 minutes. 1/500-fold diluted RNAase A and propidium iodide diluted with PBS at a concentration of 50 μg/ml were added to the FACs tubes at a volume of 500 μL, followed by pipetting. Incubation was performed at room temperature for 30 min while blocking the light, and then cell cycle was measured.

The subject of data set [3] is squamous cell carcinoma cells (A431). Kind of data set: Cell cycle analysis (propidium iodide, FACS). The conditions noted are these: 4 hr treatment, FIG. 27. Type of data set: cell-based. On the procedure:
as §1

The nature of data set [4]: Serum stability analysis (urea PAGE). It is filed as in vitro ADME, human. The method, then: To examine whether 12-12, combi 5 aptamer, combi 4 and combi 5 modified aptamers bound with three or five gemcitabines are stable in the human serum, serum stability was analyzed. In detail, 10 μL of […] was added to 100% human serum, followed by incubation at 37° C. for 0 hr, 1 hr, 3 hr, 6 hr, 12 hr, and 24 hr. After incubation, 5 μL of […] was added, and distilled water was added to a volume of 250 μL. 250 μL of phenol:chloroform:isoamyl alcohol (25:24:1) was added in the equal volume, followed by stirring. Each sample was centrifuged at 16000×g for 10 min. The supernatant was transferred to a new tube, and completely dried. The resultant was diluted with 5× sample buffer and distilled water, and boiled at 95° C. for 5 min, and cooled. The sample was separated by urea PAGE (Polyacrylamide gel Electrophoresis) at 220 V for 25 min, and then stained with SYBR gold and examined using a Gel Doc™ EZ system.

For “Combi 5 G(3) (DNA GNGAANGCGNNGAANNANWYSSSNNCAGNCANCAC; gemcitabines, 2'-OMe, 2'-F, BzdU, 3' idT; Combi 5 G(3); (1)..(1) G is 2-O-Methoxy-DNA.; (2)..(2) n is BzdU.; (3)..(3) G is 2-O-Methoxy-DNA.; (4)..(4) A is 2-Fluorine-DNA.; (5)..(5) A is 2-Fluorine-DNA.; (6)..(6) n is BzdU.; (10)..(10) n is BzdU.; (11)..(11) n is BzdU.; (12)..(12) G is 2-Fluorine-DNA.; (13)..(13) A is 2-Fluorine-DNA.; (14)..(14) A is 2-O-Methoxy-DNA.; (15)..(15) n is BzdU.; (16)..(16) n is BzdU.; (17)..(17) A is 2-O-Methox)”, in the data set with HepG2, the cellular internalization result is “excellent cellular internalization”. In data set [1], the “concentration from which a cell-killing effect is shown” value was found to be 100 nM. In addition, the cell cycle arrest entry is reported as “arrested hepatoma cells at the G1/S phase” in data set [2] and “no cell cycle arrest” in data set [3]. The “half-life in the human serum” value in data set [4] (100% human serum, 37° C., FIG. 28) was “about 64 hr”. For the same substance, the “improvement of serum half-life compared with 12-12 aptamer” value in data set [4] (human serum) is listed as not below 10 times.

The values are drawn from patent US12668803B2, “Glypican-3-specific modified aptamer and use thereof” (APTAMER SCIENCES INC., priority 2019, dated 2026).
